“Also recorded” adds a separate entry of the source.
Key:
[1] = system: human liver microsomes (HLMs); assay: Metabolic stability of seven diterpenoids in human liver microsomes; format: in vitro ADME; conditions: 10 µM, 0.5 mg/mL HLMs, 37 °C, 60 min
Procedure: For metabolism profiling, 10 µM of each of the seven compounds isolated from C. cassia bark was added to 0.5 mg/mL of pooled HLMs and 0.1 M potassium phosphate buffer (pH 7.4). The HLMs were then preincubated at 37 °C for 1 min. After adding NGS, the reaction mixture was incubated at 37 °C for 60 min. After the 60 min incubation period, 50 µL of the reaction mixture was transferred to a new tube, and 50 µL of 100% ACN containing 0.1% formic acid and tolbutamide (internal standard) was added to terminate the reaction. The mixture was then vortexed, followed by centrifugation at 15,700× g (13,000 rpm) for 10 min (Eppendorf AG, Hamburg, Germany). Finally, 90 µL of the supernatant was transferred to a vial and injected into a C18 column for LC–MS/MS analysis.
The metabolism screening of the seven compounds was performed using an HPLC system (Thermo Fisher Scientific, Bremen, Germany) equipped with an HPG-3200SD standard binary pump, a WPS-3000 TRS analytical autosampler, and a TCC-3000 SD column compartment. The HPLC system was coupled with an HR-MS (Q-Exactive Focus Quadrupole-Orbitrap MS; Thermo Fisher Scientific, Waltham, MA, USA) at the Mass Spectrometry Convergence Research Center. The full MS resolution and scan ranges were 70,000 and 60–900 m/z, respectively. The MS/MS resolution was 35,000. The mass spectra were obtained in negative ion electrospray mode. A heated electrospray ionization (HESI-II) probe was used as an ion generator, with nitrogen as the sheath gas at 35 aux units and auxiliary gas at 12 aux units. The mass spectrometer was operated in negative ionization mode. The other parameters were as follows: spray voltage, 3.5 kV; capillary temperature, 320 °C; S-lens radio frequency level, 50; and aux gas heater temperature, 400 °C.
The mobile phase consisted of 100% water with 0.1% formic acid (mobile phase A) and 100% ACN with 0.1% formic acid (mobile phase B). For metabolic stability, the gradient conditions were set as follows: 5% of B at 0.5–2.0 min, 5–50% of B at 2.0–4.5 min, 50% of B at 4.5–7.0 min, and 50–5% of B at 7.0–10.0 min at 40 °C with a flow rate of 0.2 mL/min. For metabolite identification, the gradient conditions were as follows: 10% of B at 0–5 min, 10–55% of B at 5–15 min, 55% of B at 15–23 min, and 55–10% of B at 23–30 min with a flow rate of 0.25 mL/min. Chromatographic separation was performed using a Kinetex C18 column (150 × 2.1 mm, 2.6 μm, XB-C18 100 Å, S/No: H19-070128; Phenomenex, Torrance, CA, USA). Data were analyzed using Xcalibur version 4.0 software (Thermo Fisher Scientific, Waltham, MA, USA).
To confirm their metabolic stability, seven diterpenoids (AHC, anhydrocinnzeylanol, cinncassiol A, cinncassiol B, cinnzeylanol, cinnzeylanone, and cinnzeylanine) derived from the bark of C. cassia were incubated with HLMs in the presence of the NGS for 60 min (Figure 1B). The metabolic stability of each compound was determined according to the ratio of the peak area at 60 min to that at 0 min. […] Therefore, we identified the metabolites of AHC produced in HLMs.

[2] = system: CYPs; assay: Metabolism of AHC in HLMs with SKF-525A, a nonselective CYP inhibitor; format: in vitro ADME, human; conditions: 10 µM AHC, 1 mg/mL HLMs, NGS, 60 min, depending on SKF-525A concentration
Procedure: To investigate CYP-mediated metabolism, 10 µM AHC was mixed with 1 mg/mL pooled HLMs and 0.1 M potassium phosphate buffer (pH 7.4). Then, SKF-525A, a general inhibitor of CYPs, was added at concentrations of 0.5, 1, and 5 mM. The reactions were initiated with the addition of NGS at […] for 60 min. After 60 min, the reactions were terminated by adding 400 µL of 100% acetonitrile. The mixtures were then centrifuged at 15,700× g for 10 min. Subsequently, 550 µL of supernatant was dried in a vacuum concentrator. The residue was dissolved in 100 µL of 20% MeOH (0.1% formic acid), and 5 µL of this sample was injected into a C18 column for LC–MS/MS analysis.
To confirm the metabolism of AHC by CYP enzymes, AHC was incubated in HLMs with SKF-525A, i.e., a nonspecific CYP inhibitor (Figure S7). […] Consequently, as the metabolism of AHC was inhibited by SKF-525A treatment, the production of all metabolites was reduced in an SKF-525A concentration-dependent manner.

Structure (SMILES): CC(=O)O[C@@H]1[C@@H](C)CC[C@]2(O)[C@]3(C)CC(=O)O[C@]12[C@@]1(O)C(C)=C(C(C)C)C[C@@]31O [AHC, anhydrocinnzeylanine]
- metabolic stability in HLMs (in words) ([1]; NGS): most rapid metabolization; also recorded: unique reduction in metabolic stability; also recorded: highest metabolic rate
- parent remaining after metabolism in HLMs (metabolized to) ([1]; β-NADPH): 3%
- residual amount of AHC after reaction with SKF-525A [2]: significantly increased

— article PMC8400920, “Metabolism of Diterpenoids Derived from the Bark of Cinnamomum cassia in Human Liver Microsomes” (Pharmaceutics, 2021)
